Experiment: Tg of HDC formulations with incorporated active
Type: physicochemical
Settings: hydrophilic active (diltiazem hydrochloride) incorporated
Source text: The model hydrophilic drug, diltiazem hydrochloride (“hydrophilic active”), was incorporated (10% loading) into solid vehicles of the single straight chain HDC trehalose octaacetate or the branched chain HDCs trehalose octa-3,3, dimethylbutyrate and trehalose octapivalate as well as composite formulations (1:1 ratio) of the two branched-chain HDCs or the straight chain HDC trehalose octaacetate and the branched chain HDC trehalose octapivalate, by quenching from the melt. Release of the active from the HDC solid dose delivery vehicle was assessed using an in vitro USP (volume 23) type 2 dissolution test in saline containing 0.1% sodium cholate as the dissolution medium.
The model hydrophilic drug diltiazem hydrochloride was also incorporated (5% loading) into solid vehicles of the single branched chain HDCs trehalose diisobutyrate hexaacetate and trehalose octapivalate and composite formulations (1:1 ratio) of the two branched-chain HDCs by solvent removal by rotary evaporation, in a Buchi Rotavapor R-124, of a 20% solution of active plus HDCs in a dichloromethane: acetone mixed solvent (9:1 ratio) system. […] (trehalose octapivalate) of the single branched-chain HDC formulations of active.
The model hydrophobic steroid fluticasone propionate (“hydrophobic active”) was incorporated (5% loading) into solid vehicles of the single straight chain HDC trehalose octaacetate or the branched chain HDCs trehalose octa-3,3, dimethylbutyrate and trehalose dipropanoate hexaacetate and composite formulations (1:1 ratio) of the two branched-chain HDCs by either quenching from the melt or solvent evaporation by rotary evaporation. Melt incorporation was carried out by melting the HDCs at 150-170° C. and dissolving the active in the melt at 120-140° C. Rotary evaporation was carried out using a Buchi Rotavapor R-124 using a 20% solution of active plus HDCs in a dichloromethane: acetone mixed solvent (9:1 ratio) system. The hydrophobic active was also incorporated into solid vehicles of the branched chain HDCs, trehalose octapivalate, trehalose diisobutyrate hexaacetate and lactose isobutyrate heptaacetate, either by quenching from the melt or solvent evaporation by rotary evaporation. Release of hydrophobic active from the HDC solid dose delivery vehicle was assessed using an in vitro USP (volume 23) type 2 dissolution test in saline containing 0.1% sodium cholate as the dissolution medium.
As an example of a polypeptide drug, the polypeptide hormone insulin (“polypeptide active”) was incorporated (10% loading) into solid vehicles of the single branched chain HDCs trehalose diisobutyrate hexaacetate and trehalose hexapivalate and composite formulations of the branched chain HDCs trehalose diisobutyrate hexaacetate and trehalose octapivalate (8:1 ratio) by solvent removal by lyophilization of a 20% solution of insulin plus HDCs in dimethylsulfoxide. […] Release of active from the HDC solid dose delivery vehicle was assessed using an in vitro USP (volume 23) type 2 dissolution test in saline containing 0.1% sodium cholate as the dissolution medium.

Row | Tg (° C.) with active incorporated [°C] | Compound
1 | 46.5 | Trehalose diisobutyrate hexaacetate

Same assay, conditions: hydrophobic active (fluticasone propionate, 5% loading) incorporated

Row | Tg (° C.) with active incorporated [°C] | Compound
2 | 50 | Trehalose diisobutyrate hexaacetate

Same assay, conditions: polypeptide active (insulin, 10% loading) incorporated by lyophilization from dimethylsulfoxide

Row | Tg (° C.) with active incorporated [°C] | Compound
3 | 50.1 | Trehalose diisobutyrate hexaacetate

Experiment: Glass transition temperature (Tg) of derivatized carbohydrates, by DSC
Type: physicochemical
Settings: derivatized carbohydrate alone, Tables 1-4
Source text: The reaction product can be characterized structurally by methods known in the art, including, but not limited to, nuclear magnetic resonance spectroscopy (NMR) and its material science properties characterized by differential scanning calorimetry (DSC). The characteristic melting points and Tgs (glass transition temperatures) for the derivatized carbohydrates can also be determined by DSC and other methods known in the art.
The carbohydrate derivatives were routinely synthesized by standard esterification of the carbohydrate with the chloride of the desired hydrocarbon side chain under anhydrous conditions and the resulting derivatives purified by standard techniques of solvent extraction and re-crystallization. For example, trehalose octa-3,3-dimethylbutyrate was synthesized by reacting 3,3,-dimethylbutyroyl chloride with trehalose in anhydrous pyridine, followed by extraction with ether, hydrochloric acid, potassium carbonate solution and water and finally re-crystallized twice from alcohol to yield colorless, needle-like crystals (˜80% yield) of m.pt 138-140° C., αD 112°. Trehalose hexa-3,3-dimethylbutyrate (THEX) can be prepared by protecting the 6,6′-hydroxy group of trehalose with a bulky group such as trityl or t-butyldiphenylsilyl, for example by heating trehalose and trityl chloride in pyridine. The 6,6′-ditrityltrehalose can be acylated with 3,3-dimethylbutyroyl chloride in pyridine to give 6,6′-ditritylhexa-3,3-dimethylbutyryltrehalose. The trityl group can be removed by strong acid, for example hydrogen bromide in acetic acid, to give THEX. TACT can be prepared by acylating THEX with acetic anhydride in pyridine. Suitable work-up yields the HDC in crystalline form. The physical characteristics, melting points and glass transition temperatures (Tg, ° C.) of selected carbohydrate derivatives are shown in Tables 1-5.

Row | Tg(° C.) | Compound
4 | 15 °C | CC(C)C(=O)OCC1O[C@H](OCC2O[C@@H](O[C@]3(COC(=O)C(C)C)O[C@H](COC(=O)C(C)C)[C@@H](OC(=O)C(C)C)[C@H]3OC(=O)C(C)C)C(OC(=O)C(C)C)[C@@H](OC(=O)C(C)C)[C@@H]2OC(=O)C(C)C)C(OC(=O)C(C)C)[C@@H](OC(=O)C(C)C)[C@H]1OC(=O)C(C)C (stereo partly drawn) [Raffinose undeca-isobutyrate]
5 | 41 °C | CC(=O)OCC1OC(OC2OC(COC(C)=O)C(OC(=O)C(C)C)C(OC(C)=O)C2OC(C)=O)C(OC(C)=O)C(OC(C)=O)C1OC(=O)C(C)C (stereo not drawn) [Trehalose 4,4′-diisobutyrate hexaacetate]
6 | 42 °C | CCC(=O)OC1C(COC(C)=O)OC(OC2OC(COC(C)=O)C(OC(=O)CC)C(OC(C)=O)C2OC(C)=O)C(OC(C)=O)C1OC(C)=O (stereo not drawn) [Trehalose 4,4′-dipropionate hexaactetate]
7 | 56 °C | CC(=O)OC1C(COC(=O)C(C)(C)C)OC(OC2OC(COC(=O)C(C)(C)C)C(OC(C)=O)C(OC(C)=O)C2OC(C)=O)C(OC(C)=O)C1OC(C)=O (stereo not drawn) [Trehalose 6,6′ dipivalate hexaacetate]
8 | 30 °C | CCC(CC)C(=O)OC[C@H]1O[C@H](O[C@H]2O[C@H](COC(=O)C(CC)CC)[C@@H](OC(C)=O)[C@H](OC(C)=O)[C@H]2OC(C)=O)[C@H](OC(C)=O)[C@@H](OC(C)=O)[C@@H]1OC(C)=O [Trehalose 6,6′-di-(2-ethylbutyrate) hexaacetate]
9 | 50 °C | CC(=O)O[C@@H]1[C@@H](OC(C)=O)[C@@H](O[C@H]2O[C@H](COC(=O)CC(C)(C)C)[C@@H](OC(C)=O)[C@H](OC(C)=O)[C@H]2OC(C)=O)O[C@H](COC(=O)CC(C)(C)C)[C@H]1OC(C)=O [Trehalose 6,6′-di-(3,3-dimethylbutyrate) hexaacetate]
10 | 42 °C | CC(=O)OC1C(COC(=O)C(C)C)OC(OC2OC(COC(=O)C(C)C)C(OC(C)=O)C(OC(C)=O)C2OC(C)=O)C(OC(C)=O)C1OC(C)=O (stereo not drawn) [Trehalose 6,6′-diisobutyrate hexaacetate]
11 | 43 °C | CCC(=O)OC[C@H]1O[C@H](O[C@H]2O[C@H](COC(=O)CC)[C@@H](OC(C)=O)[C@H](OC(C)=O)[C@H]2OC(C)=O)[C@H](OC(C)=O)[C@@H](OC(C)=O)[C@@H]1OC(C)=O [Trehalose 6,6′-dipropionate hexaactetate]
12 | 47 °C | CCC(C)(C)C(=O)OC[C@H]1O[C@H](O[C@H]2O[C@H](COC(=O)C(C)(C)CC)[C@@H](OC(C)=O)[C@H](OC(C)=O)[C@H]2OC(C)=O)[C@H](OC(C)=O)[C@@H](OC(C)=O)[C@@H]1OC(C)=O [Trehalose 6,6′di-(2,2-dimethylbutyrate) hexaacetate]
13 | syrup | CCCC(=O)OC[C@H]1O[C@H](O[C@H]2O[C@H](COC(=O)CCC)[C@@H](OC(=O)CCC)[C@H](OC(=O)CCC)[C@H]2OC(=O)CCC)[C@H](OC(=O)CCC)[C@@H](OC(=O)CCC)[C@@H]1OC(=O)CCC [Trehalose octabutyrate, reference compound]
14 | 7 °C | CC(C)C(=O)OCC1O[C@@H](O[C@H]2OC(COC(=O)C(C)C)[C@@H](OC(=O)C(C)C)[C@H](OC(=O)C(C)C)C2OC(=O)C(C)C)C(OC(=O)C(C)C)C(OC(=O)C(C)C)[C@H]1OC(=O)C(C)C (stereo partly drawn) [Trehalose octaisobutyrate]
15 | 3 °C | CCC(=O)OCC1O[C@@H](O[C@H]2OC(COC(=O)CC)[C@@H](OC(=O)CC)[C@H](OC(=O)CC)C2OC(=O)CC)C(OC(=O)CC)C(OC(=O)CC)[C@H]1OC(=O)CC (stereo partly drawn) [Trehalose octapropionate, reference compound]
16 | syrup | CCCCC(=O)OCC1OC(OC2OC(COC(=O)CCCC)C(OC(=O)CCCC)C(OC(=O)CCCC)C2OC(=O)CCCC)C(OC(=O)CCCC)C(OC(=O)CCCC)C1OC(=O)CCCC (stereo not drawn) [Trehalose octavalerate, reference compound]
17 | 67 °C | CC(=O)OC[C@H]1O[C@@H](O[C@H]2[C@H](OC(C)=O)[C@@H](OC(C)=O)C(OC(C)=O)O[C@@H]2COC(C)=O)[C@H](OC(C)=O)[C@@H](OC(C)=O)[C@H]1OC(C)=O (stereo partly drawn) [α, β-Lactose octaacetate, reference compound]
18 | 53 °C | CC(C)(C)CC(=O)OC[C@H]1O[C@@H](O[C@H]2[C@H](OC(=O)CC(C)(C)C)[C@@H](OC(=O)CC(C)(C)C)[C@@H](OC(=O)CC(C)(C)C)O[C@@H]2COC(=O)CC(C)(C)C)[C@H](OC(=O)CC(C)(C)C)[C@@H](OC(=O)CC(C)(C)C)[C@H]1OC(=O)CC(C)(C)C [α-Lactose octa-3,3-dimethyl-butyrate]
19 | 70 °C | CC(=O)OC[C@H]1O[C@@H](O[C@H]2[C@H](OC(C)=O)[C@@H](OC(C)=O)[C@@H](OC(C)=O)O[C@@H]2COC(C)=O)[C@H](OC(C)=O)[C@@H](OC(C)=O)[C@H]1OC(C)=O [α-Lactose octaacetate, reference compound]
20 | 52 °C | CCO[C@@H]1O[C@H](COC(C)=O)[C@@H](O[C@@H]2O[C@H](COC(C)=O)[C@@H](OC(C)=O)[C@H](OC(C)=O)[C@H]2OC(C)=O)[C@H](OC(C)=O)[C@H]1OC(C)=O [β-Cellobiose ethyl heptaacetate]
21 | 77 °C | CO[C@@H]1O[C@H](COC(C)=O)[C@@H](O[C@@H]2O[C@H](COC(C)=O)[C@@H](OC(C)=O)[C@H](OC(C)=O)[C@H]2OC(C)=O)[C@H](OC(C)=O)[C@H]1OC(C)=O [β-Cellobiose methyl heptaacetate]
22 | 15 °C | CCC(=O)OC[C@H]1O[C@@H](O[C@H]2[C@H](OC(=O)CC)[C@@H](OC(=O)CC)[C@H](OC(=O)CC)O[C@@H]2COC(=O)CC)[C@H](OC(=O)CC)[C@@H](OC(=O)CC)[C@@H]1OC(=O)CC [β-Cellobiose octapropionate, reference compound]
23 | 60 °C | CC(=O)OC[C@H]1O[C@@H](O[C@H]2[C@H](OC(C)=O)[C@@H](OC(C)=O)[C@H](OC(=O)C(C)C)O[C@@H]2COC(C)=O)[C@H](OC(C)=O)[C@@H](OC(C)=O)[C@H]1OC(C)=O [β-Lactose isobutyrate heptaacetate]
24 | 63 °C | CC(=O)OC[C@H]1O[C@@H](O[C@H]2[C@H](OC(C)=O)[C@@H](OC(C)=O)[C@H](OC(C)=O)O[C@@H]2COC(C)=O)[C@H](OC(C)=O)[C@@H](OC(C)=O)[C@H]1OC(C)=O [β-Lactose octaacetate, reference compound]
25 | 88 °C | CC(C)(C)C(=O)OC[C@H]1O[C@@H](O[C@H]2[C@H](OC(=O)C(C)(C)C)[C@@H](OC(=O)C(C)(C)C)[C@H](OC(=O)C(C)(C)C)O[C@@H]2COC(=O)C(C)(C)C)[C@H](OC(=O)C(C)(C)C)[C@@H](OC(=O)C(C)(C)C)[C@H]1OC(=O)C(C)(C)C [β-Lactose octapivalate]
26 | 73 °C | Trehalose heptapivalate
27 | 81 °C | Trehalose pentapivalate
28 | 96 °C | Trehalose tetrapivalate

Row | Compound | Tg(° C.)
29 | CC(=O)O[C@@H]1[C@@H](OC(=O)CC(C)(C)C)[C@@H](OC(=O)CC(C)(C)C)O[C@H](COC(=O)CC(C)(C)C)[C@H]1O[C@@H]1O[C@H](COC(=O)CC(C)(C)C)[C@H](OC(=O)CC(C)(C)C)[C@H](OC(=O)CC(C)(C)C)[C@H]1OC(=O)CC(C)(C)C [α-Lactose 3-acetyl-hepta-3,3-dimethylbutyrate] | 48 °C

Same assay, conditions: derivatized carbohydrate without active, Table 5

Row | Tg(° C.) [°C] | Compound
30 | 42 | Trehalose diisobutyrate hexaacetate

— patent publication US6352722B1, “Derivatized carbohydrates, compositions comprised thereof and methods of use thereof” (Quadrant Holdings Cambridge Limited, priority 1997, dated 2002)
